Reference: US7160898B2, “Pharmacological treatment for sleep apnea” (Board of Trustees of The University of Illinois, priority 2002, dated 2007)
“Also recorded” adds a separate entry of the source.

Test system: spontaneous sleep-related central apneas
Experiment: Induction and suppression of sleep apneas by serotonin and GR38032F (Example 3)
Type: in vivo, rat (Sprague-Dawley)
Method: Ten adult male Sprague-Dawley rats (Sasco-King, Wilmington, Mass.; 300 g) were maintained on a 12-h light (08:00–20:00 hour)/12-hour dark (20:00–08:00) cycle for one week, housed in individual cages, and given ad libitum access to food and water. Following the one week of acclimatization, animals were prepared for physiological testing via the surgical procedures (i.e., implantation of cortical electrodes for EEG recording and neck muscle electrodes for EMG recording, implantation of a radiotelemetry transmitter for BP and HP monitoring) as set forth above in Example 1. After completion of the surgical procedures, animals were allowed a one week recovery period prior to use in the present study. Each animal was recorded on four occasions, with recordings for an individual animal separated by at least three days. Fifteen minutes prior to each recording, each animal received (via intraperitoneal injection), in random order, one of the following: (a) saline solution (control); (b) 0.79 mg/kg serotonin; (c) 0.1 mg/kg GR38032F plus 0.79 mg/kg serotonin; or (d) 0.1 mg/kg GR38032F. For the GR38032F+serotonin test group, 0.1 mg/kg GR38032F was administered at time 09:30 followed by 0.79 mg/kg serotonin at time 09:45. Polygraphic recordings were made from 10:00–16:00. Respiration BP, EEG, and EMG data were determined and recorded via the experimental procedure as specifically set forth above in Example 2. As in Example 2, sleep apneas, defined as cessation of respiratory effort for at least 2.5 s, were scored for each recording session and were associated with the stage in which they occurred: NREM or REM sleep. The duration requirement of 2.5 s represents at least two “missed” breaths, which is analogous to a 10-s apnea duration requirement in humans. The effects of sleep stage (NREM vs REM) and injection (control vs. administration of either serotonin alone, GR38032F+serotonin, or GR38032F alone) on apnea indexes, respiratory pattern, BP, and HP were tested using analysis of variance (ANOVA) with repeated measures. Multiple comparisons were controlled using Fisher's protected least-significance difference (PLSD). One-way ANOVA was also performed by nonparametric (Kruskal-Wallis) analysis. Conclusions using parametric and nonparametric ANOVA were identical in all cases.

**Q.** What does the source list for `Cc1nccn1CC1CCc2c(c3ccccc3n2C)C1=O.Cl.O.O` (stereo not drawn) [GR38032F, 1,2,3,9-tetrahydro-9-methyl-3-[(2-methylimidazol-1-yl)methyl]carbazole-4-one, hydrochloride, dihydrate]?
**A.** antagonism of the serotonin-induced increase of REM sleep apneas (0.1 mg/kg GR38032F i.p. 15 min before 0.79 mg/kg serotonin, hydrochloride, dihydrate): abolished; also recorded: fully blocked; effect on REM sleep spontaneous apneas (GR38032F alone 0.1 mg/kg i.p.): had no effect on REM sleep spontaneous apneas; spontaneous apnea index during NREM sleep (i.p., serotonin 0.79 mg/kg, GR38032F 0.1 mg/kg, 6 hour recording): not affected by any drug treatment
